Among the data in BindingDB's records for doi:10.1016/j.bmcl.2006.04.082 (Pharmacopeia Drug Discovery, 2006) are IC50 values, retold here.

The target of the experiment is T1, C-X-C chemokine receptor type 2 (Homo sapiens, UniProt P25025).
T1 sequence (P25025 whole entry): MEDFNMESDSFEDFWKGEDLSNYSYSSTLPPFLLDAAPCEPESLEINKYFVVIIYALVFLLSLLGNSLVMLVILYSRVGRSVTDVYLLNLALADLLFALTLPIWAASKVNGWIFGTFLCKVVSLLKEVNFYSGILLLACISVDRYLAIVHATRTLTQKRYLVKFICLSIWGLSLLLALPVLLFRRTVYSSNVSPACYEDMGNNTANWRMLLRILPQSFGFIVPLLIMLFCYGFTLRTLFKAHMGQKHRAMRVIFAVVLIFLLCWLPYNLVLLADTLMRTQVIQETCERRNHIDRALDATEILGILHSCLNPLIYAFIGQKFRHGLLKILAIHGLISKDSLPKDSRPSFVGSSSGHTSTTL
The experiment can be described thus: Displacement of [125I]IL8 from human CXCR2 expressed in CHO cells.

With `CC(C)Nc1c(Nc2cccc(C(=O)N(C)C)c2O)c(=O)c1=O` [2-hydroxy-3-(2-(isopropylamino)-3,4-dioxocyclobut-1-enylamino)-N,N-dimethylbenzamide], the half-inhibitory concentration (IC50) was 10 nM.

The compound `CN(C)C(=O)c1cccc(Nc2c(NC3CCCCC3)c(=O)c2=O)c1O` [3-(2-(cyclohexylamino)-3,4-dioxocyclobut-1-enylamino)-2-hydroxy-N,N-dimethylbenzamide] came in with an IC50 of 10 nM.
